Assay results: PubChem BioAssay (NCI)
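96-well plates; 48 h exposure; 5 concentrations. Endpoints by linear interpolation between flanking doses. Not reached: highest tested concentration assigned. TGI denotes the concentration required for complete inhibition of growth.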

What was measured:
Assay in all cases: NCI tumour cell line growth inhibition, 48 h
[1] = system: DLD-1 colon
[2] = system: XF 498 CNS
[3] = system: SNB-78 CNS
[4] = system: P388 leukemia
[5] = system: MDA-N
[6] = system: SN12K1 renal
[7] = system: M19-MEL melanoma
[8] = system: DMS 114 small cell lung
[9] = system: HS 578T breast

Measured: TGI

O=C(NCCCCCCNC(=O)n1cc(F)c(=O)[nH]c1=O)NCCCOCCOCCOCCOCCOCCOCCOCCOCCOCCOCCOCCOCCOCCOCCOCCOCCOCCOCCOCCOCCOCCCNC(=O)C(O)C(O)C(O)C(O)CO (centres undefined)
> 100 µM: all assays above
